The results in this text go back to patent publication US9732063B2, “Kinase inhibitors” (RESPIVERT LIMITED, priority 2012, dated 2017).

Usually IC50 stands for the concentration that inhibits the measured activity by half.

In assay [1] the target is c-Src (Homo sapiens (Human), UniProt P12931). Put plainly: c-Src enzyme inhibition (Z-LYTE FRET). Format: biochemical. The protocol: (§1) The enzyme inhibitory activities of compounds disclosed herein are determined by FRET using synthetic peptides labelled with both donor and acceptor fluorophores (Z-LYTE, Invitrogen Ltd., Paisley, UK).
c-Src, sequence (P12931 whole entry, looked up): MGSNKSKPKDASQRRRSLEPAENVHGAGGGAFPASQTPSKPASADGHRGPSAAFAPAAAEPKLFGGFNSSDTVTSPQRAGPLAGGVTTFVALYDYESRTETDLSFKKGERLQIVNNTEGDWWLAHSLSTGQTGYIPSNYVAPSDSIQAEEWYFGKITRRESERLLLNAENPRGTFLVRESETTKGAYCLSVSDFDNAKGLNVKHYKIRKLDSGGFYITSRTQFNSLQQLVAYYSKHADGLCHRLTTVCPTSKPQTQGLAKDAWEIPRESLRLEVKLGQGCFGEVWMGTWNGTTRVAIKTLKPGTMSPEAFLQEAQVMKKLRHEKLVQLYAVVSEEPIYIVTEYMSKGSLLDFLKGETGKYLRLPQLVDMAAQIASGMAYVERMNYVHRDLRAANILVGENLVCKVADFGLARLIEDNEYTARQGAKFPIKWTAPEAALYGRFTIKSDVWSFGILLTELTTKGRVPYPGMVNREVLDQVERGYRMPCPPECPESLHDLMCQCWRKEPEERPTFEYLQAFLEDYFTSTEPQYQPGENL
(§2) The relevant enzyme (3000 ng/mL or 2000 ng/mL respectively, 2.5 μL) is incubated with the test compound (either 4 μg/mL, 0.4 μg/mL, 0.04 μg/mL, or 0.004 μg/mL, 2.5 μL each) for 2 hr at RT. The FRET peptides (8 μM, 2.5 μL), and appropriate ATP solutions (2.5 μL, 800 μM for c-Src, and 60 μM ATP for Syk) are then added to the enzymes/compound mixtures and incubated for 1 hr. Development reagent (protease, 5 μL) is added for 1 hr prior to detection in a fluorescence microplate reader (Varioskan® Flash, ThermoFisher Scientific).
(§3) In all cases, the site-specific protease cleaves non-phosphorylated peptide only and eliminates the FRET signal. Phosphorylation levels of each reaction are calculated using the ratio of coumarin emission (donor) over fluorescein emission (acceptor), for which high ratios indicate high phosphorylation and low ratios indicate low phosphorylation levels.

For assay [2], the target named is GSK3α (Homo sapiens (Human), UniProt P49840). Put plainly: GSK 3α enzyme inhibition (Z-LYTE FRET, Method 2). Format: biochemical. The protocol: as §1
GSK3α, sequence (P49840 whole entry, canonical isoform): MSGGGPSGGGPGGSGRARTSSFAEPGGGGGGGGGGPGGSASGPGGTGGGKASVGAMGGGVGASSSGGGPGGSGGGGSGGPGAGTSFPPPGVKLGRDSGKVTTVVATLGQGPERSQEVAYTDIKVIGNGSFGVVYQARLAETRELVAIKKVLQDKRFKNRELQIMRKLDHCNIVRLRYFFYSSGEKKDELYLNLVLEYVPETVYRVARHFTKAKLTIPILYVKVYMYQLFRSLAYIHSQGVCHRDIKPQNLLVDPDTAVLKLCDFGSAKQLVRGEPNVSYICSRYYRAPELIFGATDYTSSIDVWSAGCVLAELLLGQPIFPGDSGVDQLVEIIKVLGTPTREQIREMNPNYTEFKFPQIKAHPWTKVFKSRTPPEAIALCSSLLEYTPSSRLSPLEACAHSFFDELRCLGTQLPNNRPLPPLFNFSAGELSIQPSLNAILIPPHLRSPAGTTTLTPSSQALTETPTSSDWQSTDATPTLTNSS
The inhibitory activities of compounds of the invention against the GSK 3α enzyme isoform (Invitrogen), are evaluated by determining the level of activation/phosphorylation of the target peptide. The GSK3-α protein (500 ng/mL, 2.5 μL) is mixed with the test compound (2.5 μL at either 4 μg/mL, 0.4 μg/mL, 0.04 μg/mL, or 0.004 μg/mL) for 2 hr at RT. The FRET peptide (8 μM, 2.5 μL), which is a phosphorylation target for GSK3α, and ATP (40 μM, 2.5 μL) are then added to the enzyme/compound mixture and the resulting mixture incubated for 1 hr. Development reagent (protease, 5 μL) is added for 1 hr prior to detection in a fluorescence microplate reader (Varioskan® Flash, ThermoFisher Scientific).
as §3

In assay [3] the test system is PBMCs. Put plainly: IL-2 and IFN gamma release in CD3/CD28 stimulated PBMC cells. Format: cell-based. The note with it: Homo sapiens. As to the method: PBMCs from healthy subjects are separated from whole blood using a density gradient (Lymphoprep, Axis-Shield Healthcare). Cells are added to a 96 well plate pre-coated with a mixture of CD3/CD38 monoclonal antibodies (0.3 μg/mL eBioscience and 3 μg/mL BD Pharmingen respectively). Compound at the desired concentration is then added to the wells and the plate left for 3 days under normal tissue culture conditions. Supernatants are harvested and IL-2 and IFN gamma release determined by Sandwich ELISA (Duo-set, R&D System). The IC50 is determined from the dose response curve.

The subject of assay [4] is PBMCs. Briefly: LPS-induced TNFα/IL-8 release in PBMC cells. Format: cell-based. To be noted: Homo sapiens, read-out: IC50 Values for Inhibition of Cytokine Release PBMCs IL-8. As to the method:
Peripheral blood mononuclear cells (PBMCs) from healthy subjects are separated from whole blood using a density gradient (Lymphoprep, Axis-Shield Healthcare). The PBMCs are seeded in 96 well plates and treated with compounds at the desired concentration for 2 hours before addition of 1 ng/mL LPS (Escherichia Coli O111:B4 from Sigma Aldrich) for 24 hours under normal tissue culture conditions (37° C., 5% CO2). The supernatant is harvested for determination of IL-8 and TN Fa concentrations by sandwich ELISA (Duo-set, R&D systems) and read on the fluorescence microplate reader (Varioskan® Flash, ThermoFisher Scientific).

Assay [5] deals with p38 MAPKα (Homo sapiens (Human), UniProt Q16539). Put plainly: p38 MAPKα enzyme inhibition (Z-LYTE FRET, Method 2). The assay is classed as biochemical. The protocol: as §1
p38 MAPKα, sequence (Q16539 whole entry, canonical isoform): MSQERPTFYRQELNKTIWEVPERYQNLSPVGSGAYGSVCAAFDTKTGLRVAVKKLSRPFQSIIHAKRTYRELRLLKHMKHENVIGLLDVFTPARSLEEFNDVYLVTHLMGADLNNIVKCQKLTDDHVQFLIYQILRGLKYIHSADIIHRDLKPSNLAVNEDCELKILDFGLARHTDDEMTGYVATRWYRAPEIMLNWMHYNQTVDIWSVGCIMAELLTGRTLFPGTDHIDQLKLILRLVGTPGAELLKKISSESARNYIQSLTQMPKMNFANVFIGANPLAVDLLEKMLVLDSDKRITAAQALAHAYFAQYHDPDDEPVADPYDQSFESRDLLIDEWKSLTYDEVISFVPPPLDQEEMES
The inhibitory activities of test compounds against the p38 MAPKα isoform (MAPK14: Invitrogen), are evaluated indirectly by determining the level of activation/phosphorylation of the down-stream molecule, MAPKAP-K2. The p38 MAPKα protein (80 ng/mL, 2.5 μL) is mixed with the test compound (2.5 μL of either 4 μg/mL, 0.4 μg/mL, 0.04 μg/mL or 0.004 μg/mL) for 2 hr at RT. […] The mixture is incubated for 1 hr at RT. Development reagent (protease, 5 μL) is added for 1 hr prior to detection in a fluorescence microplate reader (Varioskan® Flash, ThermoFisher Scientific).
as §3

In assay [6] the target is Syk (Homo sapiens (Human), UniProt P43405). Briefly: Syk enzyme inhibition (Z-LYTE FRET). Format: biochemical. As to the method: as §1, §2, §3
[7] abbreviates: read-out: IC50 Values for Inhibition of Cytokine Release PBMCs IL-2.
The mark [8] stands for this setting: read-out: IC50 Values for Inhibition of Cytokine Release PBMCs IFNγ.

On to `COCCOCCOCCOc1cc(Nc2nccc(Oc3ccc(NC(=O)Nc4cc(C(C)C)nn4-c4ccc(C)cc4)c(Cl)c3Cl)n2)cc(OC)c1` [Example 35, 1-(2,3-Dichloro-4-((2-((3-methoxy-5-(2-(2-(2-methoxyethoxy)ethoxy)ethoxy)phenyl)-amino)pyrimidin-4-yl)oxy)phenyl)-3-(3-isopropyl-1-(p-tolyl)-1H-pyrazol-5-yl)urea], for which the IC50 was 15 nM in assay [1]; more than 10000 nM in assay [2]; 9.8 nM in assay [3] (setting [7]); 2.1 nM in assay [4]; 487 nM in assay [5].
With `COCCOCCOCCS(=O)(=O)c1cc(Nc2nccc(Oc3ccc(NC(=O)Nc4cc(C(C)C)nn4-c4ccc(C)cc4)c4ccccc34)n2)cc(OC)c1` [Example 36, 1-(3-Isopropyl-1-(p-tolyl)-1H-pyrazol-5-yl)-3-(4-((2-((3-methoxy-5-((2-(2-(2-methoxy-ethoxy)ethoxy)ethyl)sulfonyl)phenyl)amino)pyrimidin-4-yl)oxy)naphthalen-1-yl)urea], the half-inhibitory concentration (IC50) came out at 596 nM in assay [2] and 2.5 nM in assay [4].
For the compound `COCCOCCOCCOc1cc(Nc2nccc(Oc3ccc(NC(=O)Nc4cc(C(F)(F)C(F)(F)F)nn4-c4ccc(C)cc4)c4ccccc34)n2)cc(OC)c1` [Example 39, 1-(4-((2-((3-Methoxy-5-(2-(2-(2-methoxyethoxyl)ethoxy)ethoxy)phenyl)amino)pyrimidin-4-yl)oxy)naphthalen-1-yl)-3-(3-(perfluoroethyl)-1-(p-tolyl)-1H-pyrazol-5-yl)urea], the concentration for half-maximal inhibition (IC50) was 9540 nM in assay [2], 5.5 nM in assay [4] and 433 nM in assay [5].
As for `COCCOCCOCCOc1cc(Nc2nccc(Oc3ccc(NC(=O)Nc4cc(C(C)(C)C(F)(F)F)nn4-c4ccc(C)cc4)c4ccccc34)n2)cc(OC)c1` [Example 40, 1-(4-((2-((3-Methoxy-5-(2-(2-(2-methoxyethoxyl)ethoxy)ethoxy)phenyl)amino)pyrimidin-4-yl)oxy)naphthalen-1-yl)-3-(1-(p-tolyl)-3-(1,1,1-trifluoro-2-methylpropan-2-yl)-1H-pyrazol-5-yl)urea], the half-inhibitory concentration (IC50) in assay [2] was found to be 8170 nM; in assay [3] (setting [8]), 1 nM; in assay [3] (setting [7]), 175 nM; in assay [4] it was 7.2 nM.
In the case of `COc1cc(Nc2nccc(Oc3ccc(NC(=O)Nc4cc(C(C)(C)C)nn4-c4ccc(C)cc4)c4ccccc34)n2)cc(SCCN2CCOCC2)c1` [Example 41, 1-(3-(tert-Butyl)-1-(p-tolyl)-1H-pyrazol-5-yl)-3-(4-((2-((3-methoxy-5-((2-morpholinoethyl)-thio)phenyl)amino)pyrimidin-4-yl)oxy)naphthalen-1-yl)urea], the IC50 worked out at 2820 nM in assay [2]; 2.5 nM in assay [3] (setting [8]); 80.3 nM in assay [3] (setting [7]); 4.8 nM in assay [4]; 224 nM in assay [5].
For `COc1cc(Nc2nccc(Oc3ccc(NC(=O)Nc4cc(C(C)(C)C)nn4-c4ccc(C)cc4)c4ccccc34)n2)cc(S(=O)(=O)CCCN2CCOCC2)c1` [Example 43, 1-(3-(tert-Butyl)-1-(p-tolyl)-1H-pyrazol-5-yl)-3-(4-((2-((3-methoxy-5-((3-morpholinopropyl)-sulfonyl)phenyl)amino)pyrimidin-4-yl)oxy)naphthalen-1-yl)urea], the half-maximal inhibitory concentration (IC50) in assay [2] turned out to be 531 nM; in assay [3] (setting [8]) it was 2.2 nM; in assay [3] (setting [7]), 78.7 nM; in assay [4] it was 2.9 nM.
Turning to `Cc1ccc(-n2nc(C(C)(C)C)cc2NC(=O)Nc2ccc(Oc3ccnc(Nc4cccc(S(=O)(=O)C5CC5)c4)n3)c3ccccc23)cc1` [Example 46, 1-(3-(tert-Butyl)-1-(p-tolyl)-1H-pyrazol-5-yl)-3-(4-((2-((3-(cyclopropylsulfonyl)phenyl)-amino)pyrimidin-4-yl)oxy)naphthalen-1-yl)urea], the concentration for half-maximal inhibition (IC50) in assay [2] worked out at 172 nM; in assay [4], 2.7 nM.
Consider `COCCOCCOCCOc1cc(F)cc(Nc2nccc(Oc3ccc(NC(=O)Nc4cc(C(C)(C)C)nn4-c4ccc(C)cc4)c4ccccc34)n2)c1` [Example 50, 1-(3-(tert-Butyl)-1-(p-tolyl)-1H-pyrazol-5-yl)-3-(4-((2-((3-fluoro-5-(2-(2-(2-methoxyethoxy)-ethoxy)ethoxy)phenyl)amino)pyrimidin-4-yl)oxy)naphthalen-1-yl)urea], for which the half-inhibitory concentration (IC50) was 3030 nM in assay [2] and 8.6 nM in assay [4].
For the compound `COCCOCCOCCOc1cc(C#N)cc(Nc2nccc(Oc3ccc(NC(=O)Nc4cc(C(C)(C)C)nn4-c4ccc(C)cc4)c4ccccc34)n2)c1` [Example 52, 1-(3-(tert-Butyl)-1-(P-tolyl)-1H-pyrazol-5-yl)-3-(4-((2-((3-cyano-5-(2-(2-(2-methoxyethoxy)-ethoxy)ethoxy)phenyl)amino)pyrimidin-4-yl)oxy)naphthalen-1-yl)urea], the concentration for half-maximal inhibition (IC50) is more than 13000 nM in assay [2] and 15 nM in assay [4].
For the compound `C#Cc1cc(Nc2nccc(Oc3ccc(NC(=O)Nc4cc(C(C)(C)C)nn4-c4ccc(C)cc4)c4ccccc34)n2)cc(OCCOCCOCCOC)c1` [Example 54, 1-(3-(tert-Butyl)-1-(p-tolyl)-1H-pyrazol-5-yl)-3-(4-((2-((3-ethynyl-5-(2-(2-(2-methoxyethoxy)ethoxy)ethoxy)phenyl)amino)pyrimidin-4-yl)oxy)naphthalen-1-yl)urea], the IC50 in assay [2] was more than 10000 nM; in assay [4], 4.5 nM.
As for `COCCOCCOCCOc1cc(Cl)cc(Nc2nccc(Oc3ccc(NC(=O)Nc4cc(C(C)(C)C)nn4-c4ccc(C)cc4)c4ccccc34)n2)c1` [Example 64, 1-(3-(tert-Butyl)-1-(p-tolyl)-1H-pyrazol-5-yl)-3-(4-((2-((3-chloro-5-(2-(2-(2-methoxyethoxy)-ethoxy)ethoxy)phenyl)amino)pyrimidin-4-yl)oxy)naphthalen-1-yl)urea], the half-inhibitory concentration (IC50) in assay [2] was more than 10000 nM; in assay [4] it was 9.5 nM.
In the case of `COc1cc(Nc2nccc(Oc3ccc(NC(=O)Nc4cc(C(C)(C)C)nn4-c4ccc(C)cc4)c(Cl)c3Cl)n2)cc(OCCCN2CCOCC2)c1` [Example 65, 1-(3-(tert-Butyl)-1-(p-tolyl)-1H-pyrazol-5-yl)-3-(2,3-dichloro-4-((2-((3-methoxy-5-(3-morpholinopropoxyl)phenyl)amino)pyrimidin-4-yl)oxy)phenyl)urea], the IC50 in assay [2] is more than 10000 nM; in assay [3] (setting [8]), 2.8 nM; in assay [3] (setting [7]), 37 nM; in assay [4], 3.5 nM.
Take `COCCOCCOCCOc1cc(Nc2nccc(Oc3ccc(NC(=O)Nc4cc(C(C)(C)C)nn4-c4ccc(C)cc4)c4ccccc34)n2)cc(N(C)C)c1` [Example 66, 1-(3-(tert-Butyl)-1-(p-tolyl)-1H-pyrazol-5-yl)-3-(4-((2-((3-(dimethylamino)-5-(2-(2-(2-methoxyethoxy)ethoxy)ethoxy)phenyl)amino)pyrimidin-4-yl)oxy)naphthalen-1-yl)urea]: the results for the half-inhibitory concentration (IC50) in assay [2] and in assay [4] were 3390 nM and 2.6 nM, respectively.
Consider `COCCOCCOCCOc1cc(Nc2nccc(Oc3ccc(NC(=O)Nc4cc(C(C)(C)C)nn4-c4ccc(C)cc4)c4ccccc34)n2)cc(OC)c1Cl` [Example 72, 1-(3-(tert-Butyl)-1-(p-tolyl)-1H-pyrazol-5-yl)-3-(4-((2-((4-chloro-3-methoxy-5-(2-(2-(2-methoxyethoxyl)ethoxy)ethoxy)phenyl)amino)pyrimidin-4-yl)oxy)naphthalen-1-yl)urea], for which the IC50 in assay [6] was 75 nM; in assay [2], more than 10000 nM; in assay [3] (setting [8]), 3.3 nM; in assay [3] (setting [7]), 35.1 nM; in assay [5] it was 377 nM.
